For one experiment, the target named is recombinant STAT3 (Homo sapiens, UniProt P40763). Nature of the experiment: Biolayer interferometry (BLI) assay. Conditions: His-tagged STAT3 on SSA biosensors, QW12 5.2 to 333 μM, read-out: binding affinity (KD) to STAT3. How it is done:
BLI assays were performed using the BLItz system (Sartorius). Biosensors were first equilibrated 10 min in 1X kinetic buffer (Sartorius) consisting of PBS with 0.02% Tween20 and 0.1% BSA. Subsequently, depending on the assay, STAT3 was loaded onto the corresponding biosensor at a concentration of 1.9 µg/µL, as indicated in the Sartorius biosensor datasheets, for an appropriate time interval. The concentration range for the associating protein was chosen, when possible, based on the KD value available from the literature or experimentally determined for all scenarios wherein KD values were unknown. The data recorded were analyzed by means of the BLItz software and MATLAB to extrapolate the kinetic parameters. All association and dissociation curves were fitted by a single exponential function. Each acquisition was repeated twice to confirm reproducibility.
To confirm whether QW12 is a direct STAT3 inhibitor, a BLI (biolayer interferometry) analysis was performed. Briefly, recombinant STAT3 with a His tag was immobilized on SSA biosensors, and the dissociation constants were determined by measuring the binding to serial dilutions of QW12 at concentrations ranging from 5.2 to 333 μM (Figure 9A).

In experiment [1] the test system is phosphorylated AKT (T308) in HeLa cells. Nature of the experiment: Western blot of AKT (T308) phosphorylation. Type of experiment: cell-based, human. Conditions: total AKT not affected, reversed by NAC. (In general: A western blot detects proteins with antibodies after separation by electrophoresis.)
The subject of the next experiment is HeLa cells. Description: Annexin V-FITC/PI apoptosis assay, flow cytometry. Conditions: control 3.5%. Type of experiment: cell-based, human. How it is done: For the Annexin V apoptosis assay, cells were collected at the end of the treatment, washed with cold PBS, and stained with the PI/Annexin V-FITC apoptosis kit (4A Biotech Co., Ltd., Beijing, China) following the manufacturer’s instructions. All flow cytometric analyses were performed at the Tianfu Science and Technology Park Molecular and Cell Platform in the West China Hospital.

A further experiment concerns A549 cells. Nature of the experiment: CCK-8 antiproliferation assay, A549. It counts as cell-based. Conditions: Homo sapiens, 48 h. The method, then: (§1) Human lung carcinoma cell lines A549, human cervical cancer cell lines HeLa, human prostate cancer cell lines PC3, human colorectal carcinoma cell lines HCT116, and human liver cells L02 were purchased from the Chinese Academy of Sciences Shanghai Cell Bank (Shanghai, China). HeLa, A549, PC3, HCT116, and L02 cells were cultured in DMEM Dulbecco’s Modified Eagle Medium (DMEM; Gibco Inc., Gaithersburg, MD, USA). All cultures were provided with 10% fetal bovine serum (FBS; YHSM, Beijing, China), 100 IU/mL penicillin, and 100 μg/mL streptomycin, and cells were incubated at 37 °C in an atmosphere of 5% CO2.
(§2) Cell viability was determined using a CCK-8 kit (Apexbio, Houston, TX, USA). […] Subsequently, absorbance was assessed at 450 nm. Three duplicates were set in each group.
(§3) All synthesized quinoxalines compounds were tested for in vitro cytotoxicity against four cancer cell lines (HeLa, PC3, A549, and HCT116). The inhibitory effects of these compounds were evaluated using the CCK-8 assay after treatment with 20 μM of each compound. […] The species of phenyl substituents have a significant effect on the activity. […] By comparison, hydrophobic substitution at the phenyl ring gave derivatives with relatively low potency (QW7–8). In addition, large substituents on the phenyl ring exerted an unfavorable influence on the potency of the compounds (QW8 and QW16).
A general note: Formazan colour is commonly taken as a measure of viable cells.

The subject of experiment [2] is STAT3 phosphorylation (Y705) in HeLa cells. Nature of the experiment: Western blot of STAT3 Y705 phosphorylation. Type of experiment: cell-based, human. Conditions: 12 h. How it is done:
HeLa cells were seeded in a 6-well plate overnight and treated with QW12 for 24 h. The cells were then harvested and washed with cold PBS and lysed with RIPA buffer supplemented with a protease and phosphatase inhibitor cocktail. Protein concentration was measured using a BCA protein assay kit (Boster Biological Technology Co., Ltd., Wuhan, China). Proteins were separated by 10% SDS-PAGE gel and transferred onto polyvinylidene difluoride (PVDF) membranes (Millipore Co., Billerica, MA, USA). After blocking with 5% mild in PBST for 1 h at room temperature, membranes were incubated with specific primary antibodies against STAT3 (#ET1605-45), Bcl-2 (#ET1603-11), Bax (#ET1603-34), or GAPDH (#HA721136) overnight at 4 °C. The above antibodies were purchased from HUABIO, China. Phospho-STAT3 (Tyr 705) (#9145S) and anti-rabbit IgG, HRP-linked antibody (#7074S) were purchased from Cell Signaling Technology, Inc. America. […]
The activation of STAT3 is tightly regulated during various physiological processes, and the aberrant and persistent activation of STAT3 has been found in various types of cancer. […] Western blot analysis determined whether QW12 could also regulate the STAT3 signaling pathway in HeLa cells. HeLa cells were treated with QW12 for 12 h, and total cell lysates were prepared; Y705-phosphorylated STAT3 proteins were detected using a specific antibody.

Another experiment deals with HCT116 cells. Nature of the experiment: CCK-8 antiproliferation assay, HCT116. Type of experiment: cell-based. Conditions: Homo sapiens, HCT-116, 48 h. How it is done:
as §1, §2, §3

A further experiment deals with PC3 cells. Nature of the experiment: CCK-8 antiproliferation assay, PC3. Conditions: Homo sapiens, PC-3, 48 h. Type of experiment: cell-based. How it is done: as §1, §2, §3

The structures appear in SMILES notation.

Chain of recombinant STAT3 (P40763 whole entry, species assumed): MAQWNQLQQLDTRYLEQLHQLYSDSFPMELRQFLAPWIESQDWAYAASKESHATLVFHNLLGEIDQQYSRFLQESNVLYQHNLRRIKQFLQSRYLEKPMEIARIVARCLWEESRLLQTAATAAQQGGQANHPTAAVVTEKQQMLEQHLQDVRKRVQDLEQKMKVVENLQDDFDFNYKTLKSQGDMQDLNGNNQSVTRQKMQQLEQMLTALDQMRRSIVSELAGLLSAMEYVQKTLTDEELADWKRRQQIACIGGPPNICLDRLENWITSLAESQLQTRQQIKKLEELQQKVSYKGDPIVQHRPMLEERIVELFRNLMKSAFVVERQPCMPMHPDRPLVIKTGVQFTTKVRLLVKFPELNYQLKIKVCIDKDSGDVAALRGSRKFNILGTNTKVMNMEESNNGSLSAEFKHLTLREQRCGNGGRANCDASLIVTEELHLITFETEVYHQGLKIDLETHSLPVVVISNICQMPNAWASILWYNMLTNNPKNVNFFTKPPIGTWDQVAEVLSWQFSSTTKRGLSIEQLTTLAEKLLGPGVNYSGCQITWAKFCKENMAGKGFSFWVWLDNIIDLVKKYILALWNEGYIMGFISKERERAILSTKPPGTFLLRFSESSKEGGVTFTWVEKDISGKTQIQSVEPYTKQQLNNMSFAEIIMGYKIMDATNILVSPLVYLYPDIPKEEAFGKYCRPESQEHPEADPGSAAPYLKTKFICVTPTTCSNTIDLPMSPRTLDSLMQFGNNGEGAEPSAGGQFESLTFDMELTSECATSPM

As a reminder, the Kd is the concentration at which binding is half-saturated. For orientation: inhibition means the drop in the measured response relative to a control, in per cent. A word on the IC50: it is the concentration at which inhibition is half-maximal. In the case of `COc1cc(-c2ccc(/C=N/NC(=O)c3ccc(O)cc3)o2)c(OC)cc1-c1ccc2nccnc2c1` [QW12, (E)-N’-((5-(2,5-dimethoxy-4-(quinoxalin-6-yl)phenyl)furan-2-yl)methylene)-4-hydroxybenzohydrazide], the Kd on recombinant STAT3 was 67.3 µM. Further, the “effect on phosphorylated AKT levels (T308)” value in experiment [1] is listed as “significantly decreased”. For the same compound, the cell apoptosis rate with HeLa cells (10 μM) came to 13.9%; with HeLa cells (40 μM), 34.7%. Also, the inhibition at 20 µM in the experiment with A549 cells (20 μM, CCK-8, mean ± SD, read-out: Inhibition Rate (%) at 20 μM, A549) was found to be 50.8 ± 0.62%; with HCT116 cells (20 μM, CCK-8, mean ± SD, read-out: Inhibition Rate (%) at 20 μM, HCT116) it was 65.43 ± 0.27%; in the experiment with PC3 cells (20 μM, CCK-8, mean ± SD, read-out: Inhibition Rate (%) at 20 μM, PC3), 52.55 ± 0.47%. Also, the IC50 with A549 cells (CCK-8, read-out: IC50 ± SD, A549) was found to be 20.6 ± 1.22 µM; with HCT116 cells (CCK-8, read-out: IC50 ± SD, HCT116), 12.2 ± 0.25 µM; in the experiment with PC3 cells (CCK-8, read-out: IC50 ± SD, PC3), 12.7 ± 0.57 µM. The “effect on STAT3 Tyr705 phosphorylation” value in experiment [2] is given as “inhibited Tyr705 phosphorylation in a dose-dependent manner”. Moreover, the “effect on total STAT3 level” value in experiment [2] is “also decreased”.

For the origin of these results see PMC9698340, “Discovery and SAR Study of Quinoxaline–Arylfuran Derivatives as a New Class of Antitumor Agents” (Pharmaceutics, 2022).
